Source: patent US8129355B2, “Ketone ligands for modulating the expression of exogenous genes via an ecdysone receptor complex” (priority 2002, dated 2012)

Molecular target: T1, Gal4 DBD/AaEcR (DEF) with VP16-βRXR-E (Aedes aegypti, UniProt P49880)
T1 construct: The wildtype D, E, and F domains from mosquito Aedes aegypti EcR (“AaEcR-DEF”); expressed in transfected cells; host or cells: 3T3 cells, transient transfection (Superfect)
Assay: cell-based
Type: cell-based
Settings: for Fold Induction Average, AA_3T3 Assay (33 μM): single dose 33 μM, RLU ligand treated / RLU DMSO treated cells; for LC50 (half-maximal ligand concentration for reporter induction): average, dose response 33 μM to 0.01 μM, three-parameter logistic model, read-out: AA_3T3 LC50; for AA_3T3 Rel Max FI: maximum fold induction at any concentration relative to that of GS-E ligand
Method: 3T3 cells were trypsinized and plated at 2.5×10^3 cells/well on a 96-well plate. After incubation for 24 h at 37° C. under 5% CO2, cells were transfected with the Gal4 DBD/AaEcR (DEF) gene expression cassette and the reporter plasmid, pFRLuc, containing a 5XGAL4 response element and the firefly luciferase gene in serum free media using Superfect (Qiagen). After transfection for 4 h at 37° C., the cells were treated with ligand in serum media. […] Single dose testing was performed at 33 μM.

T1 sequence (P28704 286-520 A311G/G315S/G445S/I449V): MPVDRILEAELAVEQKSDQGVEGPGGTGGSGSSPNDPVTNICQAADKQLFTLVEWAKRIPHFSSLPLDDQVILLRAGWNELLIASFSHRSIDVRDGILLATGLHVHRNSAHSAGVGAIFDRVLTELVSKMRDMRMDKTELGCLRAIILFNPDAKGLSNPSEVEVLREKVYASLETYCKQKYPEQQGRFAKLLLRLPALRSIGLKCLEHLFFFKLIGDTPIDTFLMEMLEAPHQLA
T1 sequence (P49880 405-776): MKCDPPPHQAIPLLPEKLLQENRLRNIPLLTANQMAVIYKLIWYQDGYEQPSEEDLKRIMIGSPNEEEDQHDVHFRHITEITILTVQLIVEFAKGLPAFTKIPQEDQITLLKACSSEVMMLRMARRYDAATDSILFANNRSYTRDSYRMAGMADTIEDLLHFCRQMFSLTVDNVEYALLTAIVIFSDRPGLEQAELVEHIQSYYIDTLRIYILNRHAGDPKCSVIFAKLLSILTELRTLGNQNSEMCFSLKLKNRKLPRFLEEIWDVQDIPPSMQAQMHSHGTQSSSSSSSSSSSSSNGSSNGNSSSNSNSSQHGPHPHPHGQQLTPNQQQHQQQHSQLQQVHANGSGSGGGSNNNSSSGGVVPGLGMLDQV

Row | Structure (SMILES) | Fold Induction Average, AA_3T3 Assay (33 μM) | LC50 (half-maximal ligand concentration for reporter induction) [µM] | AA_3T3 Rel Max FI | fold induction at 33 µM (NIH3T3, read-out: Fold Induction Average, AA_3T3 Assay (33 μM))
1 | CCOC(=O)C(=O)N1CCCC(NC(=O)c2cccc(OC)c2C)(C(=O)c2cc(C)cc(C)c2)C1 (racemic) [Example 154] | 2 | – | – | –
2 | COc1ccccc1C(=O)C1(NC(=O)c2cccc(OC)c2C)CCCCCC1 [Example 70] | 1878 | 3.21 | 0.48 | –
3 | COc1cccc(C(=O)NC2(C(=O)c3cc(C)cc(C)c3)CCCCCC2)c1C [Example 71] | 1277 | 8.18 | 0.42 | –
4 | COc1ccccc1C(=O)C(C)(NC(=O)c1cccc(OC)c1C)c1ccc(F)cc1 (centres unmarked) [Example 72] | 3 | – | – | –
5 | COc1ccccc1C(=O)C(C)(C)NC(=O)c1cccc(OC)c1C [Example 74] | 4 | – | – | –
6 | COc1cccc(C(=O)NC(C)(C)C(=O)c2cc(C)cc(C)c2)c1C [Example 75] | 161 | > 33 | 0.02 | –
7 | CCC(CC)(NC(=O)c1cccc(OC)c1C)C(=O)c1ccc(C)cc1 [Example 77] | 1 | – | – | –
8 | CCC(CC)(NC(=O)c1cccc(OC)c1C)C(=O)c1ccccc1 [Example 78] | 14 | > 33 | 0.00 | –
9 | COc1cccc(C(=O)NC2(C(=O)c3ccc(C)cc3)CCCC2)c1C [Example 79] | 12 | > 33 | 0.00 | –
10 | O=C(NC1(C(=O)c2ccccc2)CCCC1)c1ccccc1 [Example 139] | 2 | – | – | –
11 | COc1cccc(C(=O)NC2(C(=O)c3ccccc3)CCCC2)c1 [Example 141] | 1 | – | – | –
12 | CCc1c(OC)cccc1C(=O)NC1(C(=O)c2cc(C)cc(C)c2)CCCCC1 [Example 143] | 1929 | 2.81 | 0.59 | –
13 | CCc1c(OC)cccc1C(=O)NC1(C(=O)c2cc(C)cc(C)c2)CCCC1 [Example 144] | 2339 | 2.67 | 0.70 | –
14 | COc1cccc(C(=O)NC2(C(=O)c3cc(C)cc(C)c3)CCN(C(C)=O)CC2)c1C [Example 149] | – | – | – | 2
15 | CCNC(=O)N1CCC(NC(=O)c2cccc(OC)c2C)(C(=O)c2cc(C)cc(C)c2)CC1 [Example 157] | 1 | – | – | –
